Laboratory results from patent US9828350B2, “5,6-dihydro-2H-[1,4]oxazin-3-yl-amine derivatives useful as inhibitors of beta-secretase (BACE)” (Janssen Pharmaceutica NV, priority 2010, dated 2017).

What was measured:
[1] = biological target: recombinant BACE1 protein (Homo sapiens, UniProt P56817); test: Biochemical FRET based assay; conditions: recombinant BACE1 1 μg/ml, 120 minutes at room temperature, pH 5.0; read-out: Biochemical FRET based assay pIC50 (converted)
How it was run: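 Proteolysis was read as the rise in donor fluorescence (320 nm excitation, 405 nm emission) from T0 to T120, expressed in RFU. The reaction ran 120 minutes at room temperature at pH 5.0 in citrate buffer with 4% DMSO, using […] quenched Swedish APP peptide and 1 μg/ml BACE1.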

Abeta total = test: Cellular αLisa assay in SKNBE2 cells, Abeta total; assay type: cell-based, human; conditions: incubated for 18 hours; for IC50: Homo sapiens, SKNBE2, 18 h, read-out: Cellular αLisa assay in SKNBE2 cells Abetatotal pIC50 (converted)
How it was run: (§1)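 Secreted Abeta levels were measured by sandwich αLisa, pairing biotin-AbN/25 donor beads with Ab4G8 acceptor beads for total Abeta or cAb42/26 for Abeta 1-42, read at 615 nm after 650 nm excitation following 1 hour. Cells were SKNBE2 expressing wild-type hAPP695, exposed to compound for 18 hours.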

Abeta 1-42 = test: Cellular αLisa assay in SKNBE2 cells, Abeta 1-42; assay type: cell-based, human; conditions: incubated for 18 hours; for IC50: Homo sapiens, SKNBE2, 18 h, read-out: Cellular αLisa assay in SKNBE2 cells Abeta 42 pIC50 (converted)
How it was run: as §1

Chain of recombinant BACE1 protein (P56817 46-501): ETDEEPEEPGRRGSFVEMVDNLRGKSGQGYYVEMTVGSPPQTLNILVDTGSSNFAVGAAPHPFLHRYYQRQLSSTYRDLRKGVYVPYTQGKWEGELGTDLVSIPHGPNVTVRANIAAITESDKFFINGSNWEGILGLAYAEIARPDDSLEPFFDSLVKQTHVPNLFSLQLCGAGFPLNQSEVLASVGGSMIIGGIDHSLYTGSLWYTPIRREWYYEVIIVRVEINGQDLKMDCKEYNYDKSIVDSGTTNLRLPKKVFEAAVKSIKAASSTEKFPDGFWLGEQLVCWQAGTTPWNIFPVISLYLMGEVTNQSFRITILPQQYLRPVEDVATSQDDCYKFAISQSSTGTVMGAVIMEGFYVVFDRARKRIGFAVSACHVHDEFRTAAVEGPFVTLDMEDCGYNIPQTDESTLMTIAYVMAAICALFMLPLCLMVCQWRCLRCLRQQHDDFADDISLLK

SMILES	IC50 [1] [nM]	IC50 (Abeta total) [nM]	IC50 (Abeta 1-42) [nM]	melting point [°C]	Cellular αLisa assay in SKNBE2 cells Abetatotal pIC50 (Abeta total)	Cellular αLisa assay in SKNBE2 cells Abeta 42 pIC50 (Abeta 1-42)
COc1ccc(C(=O)Nc2ccc(F)c([C@@]3(C)N=C(N)CO[C@@H]3F)c2)nc1 [Compound 208]	26.9	10	11	185.6		
C[C@]1(c2cc(-c3cncnc3)c(F)cc2F)N=C(N)CO[C@]1(F)C(F)(F)F [Compound 210]	12000	> 10000	> 10000	> 300		
C[C@]1(c2cc(-c3cncnc3)c(F)cc2F)N=C(N)CO[C@@]1(F)C(F)(F)F [Compound 211]	1410	1740	2190	62		
C[C@]1(c2cc(-c3cncc(Cl)c3)c(F)cc2F)N=C(N)CO[C@]1(F)C(F)(F)F [Compound 212]	6460	> 10000	> 10000	145.3		
C[C@]1(c2cc(-c3cncc(Cl)c3)c(F)cc2F)N=C(N)CO[C@@]1(F)C(F)(F)F [Compound 213]	437	3720	4070	70.1		
N#Cc1ccc(C(=O)Nc2ccc(F)c([C@@]3(C4CC4)N=C(N)CO[C@H]3C(F)(F)F)c2)nc1 [Compound 229, (2R,3R)—N-{3-[5-amino-3-cyclopropyl-2-(trifluoromethyl)-3,6-dihydro-2H-1,4-oxazin-3-yl]-4-fluorophenyl}-5-cyanopyridine-2-carboxamide]	44.7	14.5	14.1	181.79		
C[C@]1(c2cc(-c3cncnc3)c(F)cc2F)N=C(N)CO[C@H]1C(F)(F)F [Compound 254]	851	316	347	101.3		
C[C@]1(c2cc(-c3cncc(Cl)c3)c(F)cc2F)N=C(N)CO[C@H]1C(F)(F)F [Compound 255]	447	347	398	141.4		
COc1cnc(C(=O)Nc2ccc(F)c([C@]3(C4CC4)COCC(N)=N3)c2)cn1 [Compound 299]	170	21.4	24	196.4		
CCC1(c2cc(NC(=O)c3cnc(OC)cn3)ccc2F)N=C(N)COC1(F)C(F)(F)F (centres unmarked) [Compound 301]	81.3			196.44	7.17	7.14
CCC1(c2cc(-c3cncnc3)ccc2F)N=C(N)COC1(F)C(F)(F)F (centres unmarked) [Compound 303]	1820			204.89	5.76	5.73
COc1ccc(C(=O)Nc2ccc(F)c([C@@]3(C)N=C(N)CO[C@@]3(F)C(F)(F)F)c2)nc1 [Compound 305]	41.7	25.1	25.1	123.8		
Cc1cc(Br)cnc1C(=O)Nc1ccc(F)c([C@@]2(C3CC3)N=C(N)CO[C@@H]2F)c1 [Compound 314]	55	57.5	83.2	132.03		
C[C@]1(c2cc(-c3cncc(C#N)c3)c(F)cc2F)N=C(N)CO[C@@H]1C(F)(F)F [Compound 317]	2040	468	550	177.94		
